Source: ChEMBL document CHEMBL2413072, “Synthesis and in vitro anticancer studies of novel C-2 arylidene congeners of lantadenes” (2013)

Experiments:
Format in all cases: functional
[1] = test system: A549; assay: Growth inhibition of human A549/ATCC cells assessed as cell growth at 10^-4 M by sulforhodamine B assay; details: read-out: Activity
[2] = test system: MDA-MB-468; assay: Growth inhibition of human MDA-MB-468 cells assessed as cell growth at 10^-6 M by sulforhodamine B assay; details: read-out: Activity
[3] = test system: NCI-H522; assay: Growth inhibition of human NCI-H522 cells assessed as cell growth at 10^-4 M by sulforhodamine B assay; details: read-out: Activity
[4] = test system: SNB-19; assay: Growth inhibition of human SNB19 cells assessed as cell growth at 10 uM by sulforhodamine B assay; details: read-out: Activity
[5] = test system: OVCAR-4; assay: Growth inhibition of human OVCAR4 cells assessed as cell growth at 10 uM by sulforhodamine B assay; details: read-out: Activity
[6] = test system: RPMI-8226; assay: Growth inhibition of human RPMI8226 cells by sulforhodamine B assay
[7] = test system: HT-29; assay: Growth inhibition of human HT-29 cells assessed as growth inhibition at 10 uM by sulforhodamine B assay; details: read-out: GI
[8] = test system: NCI-H460; assay: Growth inhibition of human NCI-H460 cells assessed as cell growth at 10^-6 M by sulforhodamine B assay; details: read-out: Activity
[9] = test system: 786-0; assay: Growth inhibition of human 786-0 cells assessed as cell growth at 10 uM by sulforhodamine B assay; details: read-out: Activity
[10] = test system: K562; assay: Growth inhibition of human K562 cells assessed as cell growth at 10^-4 M by sulforhodamine B assay; details: read-out: Activity
[11] = test system: MCF7; assay: Growth inhibition of human MCF7 cells assessed as cell growth at 10^-7 M by sulforhodamine B assay; details: read-out: Activity
[12] = test system: NCI-H322M; assay: Growth inhibition of human NCI-H322M cells assessed as cell growth at 10^-8 M by sulforhodamine B assay; details: read-out: Activity
[13] = test system: A498; assay: Growth inhibition of human A498 cells by sulforhodamine B assay
[14] = test system: OVCAR-3; assay: Growth inhibition of human OVCAR3 cells assessed as cell growth at 10 uM by sulforhodamine B assay; details: read-out: Activity
[15] = test system: OVCAR-8; assay: Growth inhibition of human OVCAR8 cells assessed as growth inhibition at 10 uM by sulforhodamine B assay; details: read-out: GI
[16] = Growth inhibition of human EKVX cells assessed as growth inhibition at 10 uM by sulforhodamine B assay; details: read-out: GI
[17] = test system: SF-268; assay: Growth inhibition of human SF268 cells assessed as cell growth at 10^-6 M by sulforhodamine B assay; details: read-out: Activity
[18] = test system: BT-549; assay: Growth inhibition of human BT549 cells assessed as growth inhibition at 10 uM by sulforhodamine B assay; details: read-out: GI
[19] = test system: UO-31; assay: Growth inhibition of human UO31 cells assessed as cell growth at 10^-6 M by sulforhodamine B assay; details: read-out: Activity
[20] = test system: KM12; assay: Growth inhibition of human KM12 cells assessed as cell growth at 10 uM by sulforhodamine B assay; details: read-out: Activity
[21] = test system: PC-3; assay: Growth inhibition of human PC3 cells assessed as growth inhibition at 10 uM by sulforhodamine B assay; details: read-out: GI
[22] = test system: SR; assay: Growth inhibition of human SR cells assessed as cell growth at 10 uM by sulforhodamine B assay; details: read-out: Activity
[23] = test system: IGROV-1; assay: Growth inhibition of human IGROV1 cells assessed as growth inhibition at 10 uM by sulforhodamine B assay; details: read-out: GI
[24] = test system: NCI-H226; assay: Growth inhibition of human NCI-H226 cells assessed as growth inhibition at 10 uM by sulforhodamine B assay; details: read-out: GI
[25] = test system: OVCAR-8; assay: Growth inhibition of human OVCAR8 cells assessed as cell growth at 10 uM by sulforhodamine B assay; details: read-out: Activity
[26] = test system: DU-145; assay: Growth inhibition of human DU145 cells by sulforhodamine B assay
[27] = test system: K562; assay: Growth inhibition of human K562 cells assessed as cell growth at 10^-7 M by sulforhodamine B assay; details: read-out: Activity
[28] = test system: K562; assay: Growth inhibition of human K562 cells assessed as cell growth at 10^-8 M by sulforhodamine B assay; details: read-out: Activity
[29] = test system: K562; assay: Growth inhibition of human K562 cells assessed as growth inhibition at 10 uM by sulforhodamine B assay; details: read-out: GI
[30] = test system: HT-29; assay: Growth inhibition of human HT-29 cells assessed as cell growth at 10 uM by sulforhodamine B assay; details: read-out: Activity
[31] = test system: UACC-62; assay: Growth inhibition of human UACC62 cells assessed as growth inhibition at 10 uM by sulforhodamine B assay; details: read-out: GI
[32] = test system: 786-0; assay: Growth inhibition of human 786-0 cells assessed as cell growth at 10^-8 M by sulforhodamine B assay; details: read-out: Activity
[33] = test system: MDA-MB-468; assay: Growth inhibition of human MDA-MB-468 cells assessed as cell growth at 10^-4 M by sulforhodamine B assay; details: read-out: Activity
[34] = test system: SNB-75; assay: Growth inhibition of human SNB75 cells assessed as cell growth at 10^-4 M by sulforhodamine B assay; details: read-out: Activity
[35] = test system: HOP-92; assay: Growth inhibition of human HOP92 cells assessed as growth inhibition at 10 uM by sulforhodamine B assay; details: read-out: GI
[36] = Growth inhibition of human HCC2998 cells assessed as growth inhibition at 10 uM by sulforhodamine B assay; details: HCC 2998, read-out: GI
[37] = test system: UACC-257; assay: Growth inhibition of human UACC257 cells assessed as growth inhibition at 10 uM by sulforhodamine B assay; details: read-out: GI
[38] = test system: SF-539; assay: Growth inhibition of human SF539 cells assessed as cell growth at 10^-6 M by sulforhodamine B assay; details: read-out: Activity
[39] = test system: NCI-H23; assay: Growth inhibition of human NCI-H23 cells assessed as growth inhibition at 10 uM by sulforhodamine B assay; details: read-out: GI
[40] = test system: NCI-H23; assay: Growth inhibition of human NCI-H23 cells assessed as cell growth at 10^-6 M by sulforhodamine B assay; details: read-out: Activity
[41] = test system: MCF7; assay: Growth inhibition of human MCF7 cells assessed as growth inhibition at 10 uM by sulforhodamine B assay; details: read-out: GI
[42] = test system: NCI-H460; assay: Growth inhibition of human NCI-H460 cells assessed as cell growth at 10^-7 M by sulforhodamine B assay; details: read-out: Activity
[43] = test system: T47D; assay: Growth inhibition of human T47D cells assessed as cell growth at 10^-6 M by sulforhodamine B assay; details: read-out: Activity
[44] = test system: HOP-92; assay: Growth inhibition of human HOP92 cells assessed as cell growth at 10^-6 M by sulforhodamine B assay; details: read-out: Activity
[45] = test system: SF-268; assay: Growth inhibition of human SF268 cells assessed as cell growth at 10^-7 M by sulforhodamine B assay; details: read-out: Activity
[46] = test system: HOP-62; assay: Growth inhibition of human HOP62 cells assessed as cell growth at 10^-4 M by sulforhodamine B assay; details: read-out: Activity
[47] = read-out: LC50 (the source's name)
[48] = read-out: pLC50 (the source's name) (converted)

CC(C)=CC(=O)O[C@@H]1CC(C)(C)C[C@H]2C3=CC[C@@H]4[C@@]5(C)CCC(=O)C(C)(C)[C@@H]5CC[C@@]4(C)[C@]3(C)CC[C@@]12C(=O)O
growth at 100 µM [1]: -41%
growth at 1 µM [2]: 74%
growth at 100 µM [3]: -20%
growth at 10 µM [4]: 57.3%
growth at 10 µM [5]: 71.3%
GI50 ([6]; read-out: GI50): 1.46 µM
CC50 [6, 47]: > 100 µM
TGI ([6]; read-out: TGI): 23.3 µM
GI50 ([6]; read-out: pGI50 (converted)): 1.48 µM
CC50 [6, 48]: > 100 µM
TGI ([6]; read-out: pTGI (converted)): 23.4 µM
inhibition of growth at 10 µM [7]: 42.7%
growth at 1 µM [8]: 71%
growth at 10 µM [9]: 44.1%
growth at 100 µM [10]: 15%
growth at 0.1 µM [11]: 90%
growth at 0.01 µM [12]: 93%
GI50 ([13]; read-out: GI50): 1.59 µM
CC50 [13, 47]: > 100 µM
TGI ([13]; read-out: TGI): 14.2 µM
GI50 ([13]; read-out: pGI50 (converted)): 1.58 µM
CC50 [13, 48]: > 100 µM
TGI ([13]; read-out: pTGI (converted)): 14.1 µM
growth at 10 µM [14]: 61.3%
inhibition of growth at 10 µM [15]: 44.9%
inhibition of growth at 10 µM [16]: 58.8%
growth at 1 µM [17]: 93%
inhibition of growth at 10 µM [18]: 30.4%
growth at 1 µM [19]: 82%
growth at 10 µM [20]: 30.4%
inhibition of growth at 10 µM [21]: 63.1%
growth at 10 µM [22]: 52.1%
inhibition of growth at 10 µM [23]: 37.7%
inhibition of growth at 10 µM [24]: 21.8%
growth at 10 µM [25]: 55.1%
GI50 ([26]; read-out: GI50): 5.12 µM
CC50 [26, 47]: 98.3 µM
TGI ([26]; read-out: TGI): 25.1 µM
GI50 ([26]; read-out: pGI50 (converted)): 5.13 µM
CC50 [26, 48]: 97.7 µM
TGI ([26]; read-out: pTGI (converted)): 25.1 µM
growth at 0.1 µM [27]: 95%
growth at 0.01 µM [28]: 116%
inhibition of growth at 10 µM [29]: 55%
growth at 10 µM [30]: 57.3%
inhibition of growth at 10 µM [31]: 42.2%
growth at 0.01 µM [32]: 99%
growth at 100 µM [33]: -37%
growth at 100 µM [34]: -31%
inhibition of growth at 10 µM [35]: 71.6%
inhibition of growth at 10 µM [36]: 47.2%
inhibition of growth at 10 µM [37]: 26.1%
growth at 1 µM [38]: 90%
inhibition of growth at 10 µM [39]: 46.6%
growth at 1 µM [40]: 88%
inhibition of growth at 10 µM [41]: 50.7%
growth at 0.1 µM [42]: 101%
growth at 1 µM [43]: 92%
growth at 1 µM [44]: 69%
growth at 0.1 µM [45]: 94%
growth at 100 µM [46]: -21%
